# Where two headings read alike, the source gives them in different places.
# Tests used:
# [1] = target: T1, recombinant human GST-SYK (Homo sapiens, UniProt P43405); experiment: Homogeneous Time-Resolved Fluorescence (HTRF) assay for the recombinant human Syk enzyme; type: biochemical; conditions: GST-hSYK 5 pM, ATP 25 μM
# T1 construct: purchased Carna Biosciences 08-176
# Method in brief: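 HTRF read-out, via Europium anti-phosphotyrosine antibody and SA-APC added with EDTA, measured phosphorylation of a 250 nM biotinylated substrate after 45 min at room temperature with 25 μM ATP and 5 mM magnesium. Enzyme was 5 pM GST-hSYK, preincubated 10 min with compound in Tris pH 7.5 buffer containing DTT.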
# [2] = phase II clinical trial, allergic rhinitis; cited from earlier work
# PGD2 = conditions: dosed intranasally, phase I/II study, allergic rhinitis; cited from earlier work
# [3] = IC50 rated in classes, read-out: rhSYK Activity
Compound,"IC50 [1, 3]",further results
"Cc1cc(Nc2nccc(C(F)(F)F)n2)cc(-c2cnc(NC(C)c3ccccn3)nc2)c1 (centres unmarked) [Example 2.21, N-(3-methyl-5-{2-[(1-pyridin-2-ylethyl)amino]pyrimidin-5-yl}phenyl)-4-(trifluoromethyl)pyrimidin-2-amine]",< 0.1 µM,–
"Cc1cc(Nc2nccc(C(F)(F)F)n2)cc(-c2cnc(N(CCO)CCO)nc2)c1 [Example 2.31, 2,2′-{[5-(3-methyl-5-{[4-(trifluoromethyl)pyrimidin-2-yl]amino}phenyl)pyrimidin-2-yl]imino}diethanol]",< 0.1 µM,–
"Cc1cc(Nc2nccc(C(F)(F)F)n2)cc(-c2cnc(NCC3CCC(=O)N3)nc2)c1 (centres unmarked) [Example 2.22, 5-({[5-(3-methyl-5-{[4-(trifluoromethyl)pyrimidin-2-yl]amino}phenyl)pyrimidin-2-yl]amino}methyl)pyrrolidin-2-one]",< 0.1 µM,–
Oc1cccc(Nc2ncc(F)c(Nc3cccc(O)c3)n2)c1 [Example R112],–,efficacy versus placebo [2]: lack of efficacy versus placebo; clinical safety (PGD2): safe across a range of indicators; decrease in PGD2 (PGD2): statistically significant decrease in PGD2
"Cc1cc(Nc2nccc(C(F)(F)F)n2)cc(-c2cnc(N3CCC(C)(O)CC3)nc2)c1 [Example 2.29, 4-methyl-1-[5-(3-methyl-5-{[4-(trifluoromethyl)pyrimidin-2-yl]amino}phenyl)pyrimidin-2-yl]piperidin-4-ol]",0.1 to 1 µM,–
"CC(=O)N1CCN(c2ncc(-c3cc(C)cc(Nc4nccc(C(F)(F)F)n4)c3)cn2)CC1 [Example 2.40, N-{3-[2-(4-acetylpiperazin-1-yl)pyrimidin-5-yl]-5-methylphenyl}-4-(trifluoromethyl)pyrimidin-2-amine]",< 0.1 µM,–
"Cc1cc(Nc2nccc(C(F)(F)F)n2)cc(-c2cnc(N(C)CCO)nc2)c1 [Example 2.30, 2-{methyl[5-(3-methyl-5-{[4-(trifluoromethyl)pyrimidin-2-yl]amino}phenyl)pyrimidin-2-yl]amino}ethanol]",< 0.1 µM,–
"Cc1cc(Nc2nccc(C(F)(F)F)n2)cc(-c2cnc(N3CCC(O)C3)nc2)c1 (stereo not drawn) [Example 2.10, l-[5-(3-methyl-5-{[4-(trifluoromethyl)pyrimidin-2-yl]amino}phenyl)pyrimidin-2-yl]pyrrolidin-3-ol]",< 0.1 µM,–

# The next lines start with results.
"IC50 [1, 3]",Compound,further results
0.1 to 1 µM,"CCOC(=O)CCc1ccc(-c2cc(C)cc(Nc3nccc(C)n3)c2)nn1 [Example 3.40, ethyl 3-(6-{3-methyl-5-[(4-methylpyrimidin-2-yl)amino]phenyl}pyridazin-3-yl)propanoate]",–
< 0.1 µM,"Cc1cc(Nc2nccc(C(F)F)n2)cc(-c2cnc([C@H](C)[C@H]3CC[C@H](C(=O)O)[C@H](C)C3)nc2)c1 (single isomer, unassigned) [Example 7.5]","IC50 ([1]; values in text, read-out: IC50): 0.0008 µM"
< 0.1 µM,"Cc1cc(Nc2nccc(C(F)(F)F)n2)cc(-c2cnc(N3CC(O)C3)nc2)c1 [Example 2.50, 1-[5-(3-methyl-5-{[4-(trifluoromethyl)pyrimidin-2-yl]amino}phenyl)pyrimidin-2-yl]azetidin-3-ol]",–
< 0.1 µM,"Cc1cc(Nc2nccc(C(F)F)n2)cc(-c2cnc([C@H](C)[C@H]3CC[C@H](C(=O)O)[C@H](C)C3)nc2)c1 (single isomer, unassigned) [Example 7.7]","IC50 ([1]; values in text, read-out: IC50): 0.0012 µM"
0.1 to 1 µM,"COCC1CCN(c2ncc(-c3cc(C)cc(Nc4nccc(C(F)(F)F)n4)c3)cn2)C1 (centres unmarked) [Example 2.66, N-(3-{2-[3-(methoxymethyl)pyrrolidin-1-yl]pyrimidin-5-yl}-5-methylphenyl)-4-(trifluoromethyl)pyrimidin-2-amine]",–
0.1 to 1 µM,"CCOC(=O)CCc1cc(-c2cc(C)cc(Nc3nccc(C4CC4)n3)c2)ncn1 [Example 3.53, ethyl 3-(6-{3-[(4-cyclopropylpyrimidin-2-yl)amino]-5-methylphenyl}pyrimidin-4-yl)propanoate]",–
< 0.1 µM,"Cc1cc(Nc2nccc(C(F)(F)F)n2)cc(-c2cnc(N(C)C(=O)CC#N)nc2)c1 [Example 2.80, 2-cyano-N-methyl-N-[5-(3-methyl-5-{[4-(trifluoromethyl)pyrimidin-2-yl]amino}phenyl)pyrimidin-2-yl]acetamide]",–
< 0.1 µM,"Cc1cc(Nc2nccc(C(F)(F)F)n2)cc(-c2cnc(NC(CO)C(=O)O)nc2)c1 (racemic) [Example 2.41, N-[5-(3-methyl-5-{[4-(trifluoromethyl)pyrimidin-2-yl]amino}phenyl)pyrimidin-2-yl]serine]",–
< 0.1 µM,"Cc1cc(Nc2nccc(C(F)(F)F)n2)cc(-c2ccc(N3CCC(C(=O)O)CC3)nn2)c1 [Example 3.37, 1-[6-(3-methyl-5-{[4-(trifluoromethyl)pyrimidin-2-yl]amino}phenyl)pyridazin-3-yl]piperidine-4-carboxylic acid]",–
1 to 10 µM,"CCOC(=O)CCc1cc(-c2cc(C)cc(Nc3nccc(C)n3)c2)ncn1 [Example 3.51, ethyl 3-(6-{3-methyl-5-[(4-methylpyrimidin-2-yl)amino]phenyl}pyrimidin-4-yl)propanoate]",–
< 0.1 µM,"Cc1cc(Nc2nccc(C(F)(F)F)n2)cc(-c2cnc(N3CCCC(O)C3)nc2)c1 (centres unmarked) [Example 2.75, 1-[5-(3-methyl-5-{[4-(trifluoromethyl)pyrimidin-2-yl]amino}phenyl)pyrimidin-2-yl]piperidin-3-ol]",–
